Laboratory results: patent US6399658B1, “Composition containing ascorbic acid” (Sumitomo Pharmaceuticals Co., Ltd., priority 1996, dated 2002)

Columns and labels:
3T3-L1 adipocytes = test: Lactic acid increase induced by metformin hydrochloride in 3T3-L1 adipocytes; format: cell-based, mouse; details: for Lactic acid levels: additive 40 mM together with metformin hydrochloride 10 mM, medium after 24 hr, 30% O2/5% CO2
Description: Then the cells were differentiated to adipocytes according to the following procedure. […] The medium was changed with the same fresh medium every 48 hr until experiments. Lactic acid levels were measured by enzyme assay on lactate dehydrogenase and glutamate pyruvate transaminase, using Lactate Test BMY (Boehringer Mannheim). To the plate of the differentiated 3T3-L1 cells were added metoformin hydrochloride (10 mM) and various acids (40 mM), and the differentiated 3T3-L1 cells were incubated under 30% O2/5% CO2 condition for 24 hr. Lactic acid levels in the medium were measured.

5/6 nephrectomy rats = details: p.o. twice a day for 4 days
Source text: After 5-week old Wistar rats were acclimatized for 7 to 10 days, 2/3 of left kidney were removed. After the rats were bred and observed for 7 days, all right kidney was removed. After the rats were bred and observed for 7 to 10 days, the rats were used for experiments.
The experimental schedule was as follows. 5/6 Nephrectomy rats were divided into four groups according to their weight, blood urea nitrogen levels and serum creatinine levels after preliminary breeding and observation after purchase. […] The volume of administrated liquids was 5 mL/kg/dose. […] Blood was collected from tail vein under ether anesthetics at the day 5, and the blood lactic acid levels were measured.

KKAy mice [1] = test: Reduction of blood sugar levels in diabetic model animals (KKAy mice), metformin L-ascorbate study; details: p.o. twice a day for 5 days; for Blood glucose levels: 2 hr after last administration, metformin hydrochloride 600, L-ascorbic acid 800, metformin L-ascorbate 1400 mg/kg/dose
KKAy mice [2] = test: Reduction of blood sugar levels in diabetic model animals (KKAy mice), metformin hydrochloride + L-ascorbic acid study; format: in vivo, mouse; details: p.o. twice a day for 5 days; for Blood glucose levels: 2 hr after last administration, metformin hydrochloride 600, L-ascorbic acid 2900, metformin hydrochloride 600 + L-ascorbic acid 2900 mg/kg/dose
Source text: . The experimental schedule was as follows.

[3] = system: rat hepatocytes primary culture; test: Inhibition of gluconeogenesis in rat hepatocytes primary culture; format: cell-based; details: 6 hr; for Glucose levels in the medium: Hanks solution containing 0.1% fructose
Description: Hepatocytes were isolated from a male Wistar rat. The isolated hepatocytes were grown on gelatin coated 24-well plate (3×10^5 cells/well) in Williams E medium containing 10 nM dexamethasone and 5% fetal calf serum under the 37° C., 5% CO2/95% air condition for 24 hr.
After the plates of hepatocytes primary culture were washed by phosphate buffer twice, the medium were changed to Hanks solution containing 0.1% fructose (depletion glucose). […] Glucose levels (mg/dL) in the medium were measured.

| Compound | Lactic acid levels (3T3-L1 adipocytes) [mg/dL] | Effect for reducing blood glucose levels (in words) (KKAy mice [1]) | Blood glucose levels (KKAy mice [1]) [mg/dL] | Blood glucose levels (KKAy mice [2]) [mg/dL] | further results |
| --- | --- | --- | --- | --- | --- |
| O=C(O)CCC(=O)O [Succinic acid, succinic acid] | 145 |  |  |  |  |
| CN(C)C(=N)N=C(N)N.O=C1OC(C(O)CO)C(O)=C1O [Metformin L-ascorbate] |  | Significant effects for reducing blood glucose levels | 270.3 ± 78.2 |  | Blood lactic acid levels (5/6 nephrectomy rats; blood at day 5, metformin hydrochloride 250 mg/kg/dose, metformin L-ascorbate 461 mg/kg/dose, metformin hydrochloride 250 + L-ascorbic acid 266 mg/kg/dose (same moles of metformin)): 40.2 ± 6.2 (†)(*) mg/dL; Blood lactic acid levels compared with metformin hydrochloride group (in words) (5/6 nephrectomy rats; day 5): significantly lower than metformin hydrochloride group; Blood lactic acid levels compared with vehicle group (in words) (5/6 nephrectomy rats; day 5): significantly higher than vehicle group |
| CN(C)C(=N)NC(=N)N.Cl [Metformin hydrochloride, 1,1-dimethylbiguanide hydrochloride] |  | Significant effects for reducing blood glucose levels | 247.6 ± 30.2 | 286.5 ± 63.1 | Effect for reducing blood glucose levels (in words) (KKAy mice [2]): Significant effects for reducing blood glucose levels |
| O=C(O)CC(O)(CC(=O)O)C(=O)O [Citric acid, citric acid] | 155 |  |  |  |  |
| O=C(O)CC(O)C(=O)O (stereo not shown) [Malic acid, malic acid] | 143 |  |  |  |  |
| O=C1O[C@H]([C@@H](O)CO)C(O)=C1O [L-ascorbic acid] | 73 |  | 392.8 ± 45.3 | 367.0 ± 45.3 | Effect on lactic acid increase induced by metformin hydrochloride (in words) (3T3-L1 adipocytes; 40 mM with metformin hydrochloride 10 mM, 24 hr): prevented lactic acid increase induced by metformin hydrochloride; Glucose levels in the medium ([3]; 1 mM (each 1 mM for the combination)): 14.6 mg/dL; Glucose levels in the medium ([3]; 3 mM (each 3 mM for the combination)): 10.6 mg/dL; Effect on gluconeogenesis (in words) ([3]; 1 or 3 mM): Gluconeogenesis was reduced |
